Assay results as given in US12139520B2 (priority 2020, dated 2024).
Numbered stars: 1 amine (or outer) side, 2 acyl side, 3 side chain; on linkers, the order of the positions; unused ones are H or OH. Bridge positions count the residues as written; N and C are the ends. Square brackets hold non-standard residues; d marks the D form. Side chains are listed from the residue outwards. Peptide text beside a SMILES is read from it. * marks the point of attachment. C20 diacid = O=C(O)CCCCCCCCCCCCCCCCCCC(=O)*; γGlu = O=C(O)[C@H](CCC(=O)[*:2])N[*:1]; Hyp = O=C(O)[C@@H]1C[C@@H](O)CN1; AEEA = NCCOCCOCC(=O)O

Legend:
hAM1 receptor = hAM1 receptor (Homo sapiens, UniProt O60895+Q16602); test: cAMP assay for in vitro receptor activation, hAM1-R; type: cell-based; conditions: cAMP assay, hAM1 receptor; read-out: hAM1R EC50
Summary of the method: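 A subcloned monoclonal line stably expressing hAM1 receptor is thawed and plated at 8000 cells/well. The assay buffer is DPBS with 0.05% casein and 0.5 mM IBMX, and receptor activation is followed by cAMP levels.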

hAMY3 receptor = molecular target: T1, hAMY3 receptor (Homo sapiens, UniProt O60896+P30988); test: cAMP assay for in vitro receptor activation, hAMY3-R; type: cell-based; conditions: cAMP assay, hAMY3 receptor; read-out: hAMY3R EC50
T1 sequence (P30988 25-474): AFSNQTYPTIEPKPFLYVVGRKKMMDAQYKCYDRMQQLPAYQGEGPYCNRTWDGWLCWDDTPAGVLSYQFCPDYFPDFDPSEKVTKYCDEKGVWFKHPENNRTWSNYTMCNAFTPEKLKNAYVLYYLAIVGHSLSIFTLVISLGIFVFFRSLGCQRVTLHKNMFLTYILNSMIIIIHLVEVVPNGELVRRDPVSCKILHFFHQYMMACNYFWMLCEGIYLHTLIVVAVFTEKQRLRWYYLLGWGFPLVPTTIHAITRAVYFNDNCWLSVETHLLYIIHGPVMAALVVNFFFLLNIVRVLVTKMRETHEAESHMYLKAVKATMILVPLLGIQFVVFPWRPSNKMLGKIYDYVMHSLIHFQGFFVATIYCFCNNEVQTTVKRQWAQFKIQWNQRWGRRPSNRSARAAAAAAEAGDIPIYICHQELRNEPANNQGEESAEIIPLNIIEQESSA
T1 sequence (O60896 24-148 partner): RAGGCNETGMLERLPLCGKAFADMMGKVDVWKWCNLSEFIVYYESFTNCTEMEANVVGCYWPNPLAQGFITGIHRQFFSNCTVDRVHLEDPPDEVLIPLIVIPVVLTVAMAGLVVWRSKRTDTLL
Summary of the method: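 Stable hAMY3 cells; DPBS + 0.05% casein + 0.5 mM IBMX; graded compound doses, 30 min, RT; cAMP via HTRF Gs kit, TR-FRET read at 1 h.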

Chain of hAM1 receptor (Q16602 23-461): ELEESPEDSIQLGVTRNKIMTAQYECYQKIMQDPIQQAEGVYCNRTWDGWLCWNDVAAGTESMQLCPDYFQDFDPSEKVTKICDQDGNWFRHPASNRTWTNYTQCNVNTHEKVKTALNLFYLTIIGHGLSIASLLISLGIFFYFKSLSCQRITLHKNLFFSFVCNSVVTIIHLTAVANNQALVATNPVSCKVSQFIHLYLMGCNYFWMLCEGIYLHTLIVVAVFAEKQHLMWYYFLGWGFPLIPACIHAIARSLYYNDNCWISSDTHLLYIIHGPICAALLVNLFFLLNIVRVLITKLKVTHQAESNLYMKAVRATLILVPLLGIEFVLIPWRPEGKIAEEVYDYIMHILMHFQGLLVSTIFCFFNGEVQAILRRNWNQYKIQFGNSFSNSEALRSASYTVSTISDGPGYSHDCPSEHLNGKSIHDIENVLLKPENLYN
Chain of hAM1 receptor (O60895 43-175 partner): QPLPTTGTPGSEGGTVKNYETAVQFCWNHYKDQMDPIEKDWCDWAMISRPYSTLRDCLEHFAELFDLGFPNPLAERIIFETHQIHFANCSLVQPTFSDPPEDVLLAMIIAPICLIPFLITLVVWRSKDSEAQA

Compound | EC50 (hAM1 receptor) | EC50 (hAMY3 receptor)
CC[C@H](C)[C@H](NC(=O)[C@H](CCC(N)=O)NC(=O)[C@H](CCC(=O)O)NC(=O)[C@H](C)NC(=O)[C@H](CC(C)C)NC(=O)[C@H](CCCNC(=N)N)NC(=O)[C@H](C)NC(=O)[C@@H](NC(=O)[C@@H](NC(=O)[C@@H]1CSSC[C@H](NC(=O)[C@H](CCCCN)NC(=O)CC[C@H](NC(=O)CCCCCCCCCCCCCCCCCCC(=O)O)C(=O)O)C(=O)N[C@@H](CC(N)=O)C(=O)N[C@@H]([C@@H](C)O)C(=O)N[C@@H](C)C(=O)N[C@@H]([C@@H](C)O)C(=O)N1)[C@@H](C)O)C(C)C)C(=O)N[C@@H](Cc1ccc(O)cc1)C(=O)N[C@@H](CCC(N)=O)C(=O)N[C@@H](Cc1ccccc1)C(=O)N[C@H](C(=O)N[C@@H](CC(=O)O)C(=O)N[C@@H](CCCCN)C(=O)N[C@@H](CC(=O)O)C(=O)N[C@@H](CCCCN)C(=O)N[C@@H](CC(=O)O)C(=O)N1CCC[C@H]1C(=O)N[C@H](C(=O)N[C@@H](C)C(=O)N1CCC[C@H]1C(=O)N1CCC[C@H]1C(=O)N[C@H](C(=O)N[C@@H](CC(N)=O)C(=O)N[C@H](C(=O)NCC(=O)N[C@@H](CO)C(=O)N[C@@H](CC(N)=O)C(=O)NCC(=O)N1C[C@H](O)C[C@H]1C(N)=O)C(C)C)[C@@H](C)O)C(C)C)[C@@H](C)O [compound 133] ({C20 diacid-γGlu}-KCNTATCTVARLAEQIYQFTDKDKDPVAPPTNVGSNG[Hyp]-NH2; disulfide 2-7) | > 5000 nM | 0.031 nM
CC[C@H](C)[C@H](NC(=O)[C@H](C)NC(=O)CNC(=O)[C@H](Cc1ccccc1)NC(=O)[C@H](CC(N)=O)NC(=O)[C@H](CC(N)=O)NC(=O)[C@H](CO)NC(=O)[C@H](CO)NC(=O)[C@H](Cc1c[nH]cn1)NC(=O)[C@@H](NC(=O)[C@H](CC(C)C)NC(=O)[C@H](Cc1ccccc1)NC(=O)[C@H](CC(N)=O)NC(=O)[C@H](C)NC(=O)[C@H](CC(C)C)NC(=O)[C@H](CCCNC(=N)N)NC(=O)[C@H](CCC(N)=O)NC(=O)[C@@H](NC(=O)[C@H](C)NC(=O)[C@@H]1CSSC[C@H](NC(=O)[C@@H](N)CCCCN)C(=O)N[C@@H](CC(N)=O)C(=O)N[C@@H]([C@@H](C)O)C(=O)N[C@@H](C)C(=O)N[C@@H]([C@@H](C)O)C(=O)N1)[C@@H](C)O)C(C)C)C(=O)N[C@@H](C)C(=O)N1CCC[C@H]1C(=O)N[C@@H](CO)C(=O)N[C@H](C(=O)N[C@@H](CCCCN)C(=O)N[C@H](C(=O)NCC(=O)N1CCC[C@H]1C(=O)N[C@@H](CC(N)=O)C(=O)NCC(=O)N[C@@H](Cc1ccc(O)cc1)C(N)=O)[C@@H](C)CC)[C@@H](C)O [compound 128] (H-KCNTATCATQRLANFLVHSSNNFGAIAPSTKIGPNGY-NH2; disulfide 2-7; N-terminus assumed) | 130 nM | 0.028 nM
CC[C@H](C)[C@H](NC(=O)[C@H](CCC(N)=O)NC(=O)[C@H](Cc1c[nH]cn1)NC(=O)[C@H](C)NC(=O)[C@H](CC(C)C)NC(=O)[C@H](CCCNC(=N)N)NC(=O)[C@H](CCC(N)=O)NC(=O)[C@@H](NC(=O)[C@@H](NC(=O)[C@@H]1CSSC[C@H](NC(=O)[C@H](CCCCN)NC(=O)CC[C@H](NC(=O)CCCCCCCCCCCCCCCCCCC(=O)O)C(=O)O)C(=O)N[C@@H](CC(N)=O)C(=O)N[C@@H]([C@@H](C)O)C(=O)N[C@@H](C)C(=O)N[C@@H]([C@@H](C)O)C(=O)N1)[C@@H](C)O)C(C)C)C(=O)N[C@@H](C)C(=O)N[C@@H](CCC(N)=O)C(=O)N[C@@H](Cc1ccccc1)C(=O)N[C@H](C(=O)N[C@@H](CC(=O)O)C(=O)N[C@@H](CCCCN)C(=O)N[C@@H](CC(=O)O)C(=O)N[C@@H](CCCCN)C(=O)N[C@@H](CC(=O)O)C(=O)N[C@@H](CC(N)=O)C(=O)N[C@H](C(=O)N[C@@H](C)C(=O)N1CCC[C@H]1C(=O)N1CCC[C@H]1C(=O)N[C@H](C(=O)N[C@@H](CC(N)=O)C(=O)N[C@H](C(=O)NCC(=O)N[C@@H](CO)C(=O)N[C@@H](CC(N)=O)C(=O)NCC(=O)N1C[C@H](O)C[C@H]1C(N)=O)C(C)C)[C@@H](C)O)C(C)C)[C@@H](C)O [compound 61] ({C20 diacid-γGlu}-KCNTATCTVQRLAHQIAQFTDKDKDNVAPPTNVGSNG[Hyp]-NH2; disulfide 2-7) | > 5000 nM | 0.012 nM
CC[C@H](C)[C@H](NC(=O)[C@H](CCC(N)=O)NC(=O)[C@H](CCC(=O)O)NC(=O)[C@H](C)NC(=O)[C@H](CC(C)C)NC(=O)[C@H](CCCNC(=N)N)NC(=O)[C@H](CCC(N)=O)NC(=O)[C@@H](NC(=O)[C@@H](NC(=O)[C@@H]1CSSC[C@H](NC(=O)[C@@H](N)CCCCN)C(=O)N[C@@H](CC(N)=O)C(=O)N[C@@H]([C@@H](C)O)C(=O)N[C@@H](C)C(=O)N[C@@H]([C@@H](C)O)C(=O)N1)[C@@H](C)O)C(C)C)C(=O)N[C@@H](Cc1ccc(O)cc1)C(=O)N[C@@H](CCC(N)=O)C(=O)N[C@@H](Cc1ccccc1)C(=O)N[C@H](C(=O)N[C@@H](CC(=O)O)C(=O)N[C@@H](CCCCN)C(=O)N[C@@H](CC(=O)O)C(=O)N[C@@H](CCCCN)C(=O)N[C@@H](CCCCNC(=O)COCCOCCNC(=O)COCCOCCNC(=O)CC[C@H](NC(=O)CCCCCCCCCCCCCCCCCCC(=O)O)C(=O)O)C(=O)N[C@@H](CC(N)=O)C(=O)N[C@H](C(=O)N[C@@H](C)C(=O)N1CCC[C@H]1C(=O)N1CCC[C@H]1C(=O)N[C@H](C(=O)N[C@@H](CC(N)=O)C(=O)N[C@H](C(=O)NCC(=O)N[C@@H](CO)C(=O)N[C@@H](CC(N)=O)C(=O)NCC(=O)N1C[C@H](O)C[C@H]1C(N)=O)C(C)C)[C@@H](C)O)C(C)C)[C@@H](C)O [compound 40] (H-KCNTATCTVQRLAEQIYQFTDKDKK([AEEA-AEEA-γGlu-C20 diacid])NVAPPTNVGSNG[Hyp]-NH2; disulfide 2-7; N-terminus assumed) | > 5000 nM | 0.01 nM
CC[C@H](C)[C@H](NC(=O)[C@H](CCC(N)=O)NC(=O)[C@H](CCC(=O)O)NC(=O)[C@H](C)NC(=O)[C@H](CC(C)C)NC(=O)[C@H](CCCNC(=N)N)NC(=O)[C@H](CCC(N)=O)NC(=O)[C@@H](NC(=O)[C@@H](NC(=O)[C@@H]1CSSC[C@H](NC(=O)[C@H](CCCCN)NC(=O)CC[C@H](NC(=O)CCCCCCCCCCCCCCCCCCC(=O)O)C(=O)O)C(=O)N[C@@H](CC(N)=O)C(=O)N[C@@H]([C@@H](C)O)C(=O)N[C@@H](C)C(=O)N[C@@H]([C@@H](C)O)C(=O)N1)[C@@H](C)O)C(C)C)C(=O)N[C@@H](Cc1ccc(O)cc1)C(=O)N[C@@H](CCC(N)=O)C(=O)N[C@@H](Cc1ccccc1)C(=O)N[C@H](C(=O)N[C@@H](CC(=O)O)C(=O)N[C@@H](CCCCN)C(=O)N[C@@H](CC(=O)O)C(=O)N[C@@H](CCCCN)C(=O)N[C@@H](CC(=O)O)C(=O)N[C@@H](CC(N)=O)C(=O)N[C@H](C(=O)N[C@@H](C)C(=O)N1CCC[C@H]1C(=O)N1CCC[C@H]1C(=O)N[C@H](C(=O)N[C@@H](C)C(=O)N[C@H](C(=O)NCC(=O)N[C@@H](CO)C(=O)N[C@@H](CC(N)=O)C(=O)NCC(=O)N1C[C@H](O)C[C@H]1C(N)=O)C(C)C)[C@@H](C)O)C(C)C)[C@@H](C)O [compound 63] ({C20 diacid-γGlu}-KCNTATCTVQRLAEQIYQFTDKDKDNVAPPTAVGSNG[Hyp]-NH2; disulfide 2-7) | > 5000 nM | 0.012 nM
CC[C@H](C)[C@H](NC(=O)[C@H](CCC(N)=O)NC(=O)[C@H](Cc1c[nH]cn1)NC(=O)[C@H](C)NC(=O)[C@H](CC(C)C)NC(=O)[C@H](CCCNC(=N)N)NC(=O)[C@H](CCC(N)=O)NC(=O)[C@@H](NC(=O)[C@@H](NC(=O)[C@@H]1CSSC[C@H](NC(=O)[C@H](CCCCN)NC(=O)CC[C@H](NC(=O)CCCCCCCCCCCCCCCCCCC(=O)O)C(=O)O)C(=O)N[C@@H](CC(N)=O)C(=O)N[C@@H]([C@@H](C)O)C(=O)N[C@@H](C)C(=O)N[C@@H]([C@@H](C)O)C(=O)N1)[C@@H](C)O)C(C)C)C(=O)N[C@@H](C)C(=O)N[C@@H](CCC(N)=O)C(=O)N[C@@H](Cc1ccccc1)C(=O)N[C@@H](CO)C(=O)N[C@@H](CC(=O)O)C(=O)N[C@@H](CCCCN)C(=O)N[C@@H](CC(=O)O)C(=O)N[C@@H](CCCCN)C(=O)N[C@@H](CC(=O)O)C(=O)N[C@@H](CC(N)=O)C(=O)N[C@H](C(=O)N[C@@H](C)C(=O)N1CCC[C@H]1C(=O)N1CCC[C@H]1C(=O)N[C@H](C(=O)N[C@@H](CC(N)=O)C(=O)N[C@H](C(=O)NCC(=O)N[C@@H](CO)C(=O)N[C@@H](CC(N)=O)C(=O)NCC(=O)N1C[C@H](O)C[C@H]1C(N)=O)C(C)C)[C@@H](C)O)C(C)C [compound 79] ({C20 diacid-γGlu}-KCNTATCTVQRLAHQIAQFSDKDKDNVAPPTNVGSNG[Hyp]-NH2; disulfide 2-7) | > 5000 nM | 0.014 nM
